# Laboratory results as given in patent US4067997A, “Synergistic microbecidal composition and method” (priority 1976, dated 1978).
# Where a name gives a salt, the structure may show the parent alone. Read-outs that look alike come from different tables or passages of the source.
# Legend:
# Streptococcus mutans = test: MIC on mass basis (Example V procedure); format: cell-based, Streptococcus mutans (ATCC 10441)
# Experimental: (§1) The essential procedure of Example I was followed with a series of phenolic compounds, with the exception that the test method was conducted on a mass (μg/ml) basis rather than a molecular (mol/ml) basis of the foregoing tests, since the long established phenol-coeffecient test is on a mass rather than molecular basis. Additionally, a different but closely related group of organisms were used in this test, in order to give a complete representative span on gram-negative, gram-positive and fungus organisms. Additionally, the phenolic derivatives chosen for test purposes include a number of derivatives which are presently accepted by the FDA as food-grade phenolic microbicides.
# (§2) The same procedure of Example V was repeated but with combinations of mono-laurin (GML).
# (§3) The procedure of Example V was repeated with combinations of glycerol mono-laurin (GML) and ethylenediamine tetraacetic acid (EDTA) as the calcium salt and in combination with BHA.
# Corynebacterium sp. = test: MIC on mass basis (Example V procedure); format: cell-based
# Experimental: as §1
# Nocardia asteroides = test: MIC on mass basis (Example V procedure); format: cell-based
# Experimental: as §1, §2, §3
# Pseudomonas aeruginosa = test: MIC on mass basis (Example V procedure); format: cell-based
# Experimental: as §1, §2, §3
# Staphylococcus aureus = test: MIC on mass basis (Example V procedure); format: cell-based
# Experimental: as §1, §2, §3
# Streptococcus agalactiae = test: MIC on mass basis (Example V procedure); format: cell-based
# Experimental: as §1, §2, §3
# Saccharomyces cerevisiae = test: MIC on mass basis (Example V procedure); format: cell-based
# Experimental: as §1, §2, §3
# Escherichia coli = test: MIC on mass basis (Example V procedure); format: cell-based
# Experimental: as §1, §2, §3
# Candida albicans = test: MIC on mass basis (Example V procedure); format: cell-based
# Experimental: as §1, §2, §3
# Streptococcus Group D = test: MIC, broth dilution (Examples I/II); format: cell-based; details: Table 3, Streptococcus Group D
# Experimental: In order to establish comparative bactericidal and fungicidal results with homologous fatty acids, a series of experiments was performed with thirty straight-chain fatty acids and derivatives thereof. Eight different gram-negative and twelve different gram-positive organisms, representing a very broad spectrum of organisms, were used in these experiments including the fungus Candida (a yeast). Additionally, fatty acids were chosen to show the effects of saturation versus unsaturation, in the fatty acid claim. Standard solutions of the fatty acids and their derivatives were prepared by first dissolving the weighed compounds in 1 to 2 ml of 95% ethanol and immediately pouring this solution into 200 ml of Tripticase Soy Broth. These lipid compounds which are insoluble in water and broth precipitated into very small crystals or droplets. The tubes containing the suspension were warmed to approximately 70° C and were then placed in an ultrasonic tank for further solubilization of the lipid derivatives.
# Standard solutions (or suspensions) at 1,000 μg/ml were twofold serially diluted with additional broth to a concentration of 125 μg/ml. A 4-ml amount of each dilution was then quickly, and with constant agitation, dispensed into appropriately labeled screw-capped glass tubes (16 by 125 mm). The tubes were sterilized with steam at 15 psi for 15 minutes. After sterilization, all tubes were cooled and incubated overnight at 35° C to insure sterility.
# All compounds were compared on a molar (micromoles/milliliter) rather than on a mass basis. In the following lists of organisms used, those followed by a parenthetical number are registered with the American Type Culture Collection (ATCC); the remainder were isolates from Providence Hospital or Northland Laboratory.
# One drop (0.04 ± 0.01 ml) of an 18-hr broth culture containing 10^7 and 10^9 organisms/ml was added to each dilution of the test compound, as well as to a tube of plain broth which served as the positive control. After inoculation, the contents of each tube were well mixed, and the tubes were incubated at 35° C in a 5% carbon dioxide + […] atmosphere.
# The MIC is defined as the lowest concentration of compound at which no […] evidence of growth was observed when turbidity of the inoculated broth dilutions was compared with control tubes. […] Only a one-tube difference between the bactericidal and bacteriostatic concentrations was normally observed.
# Standard solutions (1000 μg/ml) of three fatty acids and polyglycerol esters thereof were prepared as described in Example I. Also sucrose esters were prepared by transferring the weighed compounds (0.2 gm. dissolved in 1 ml absolute methanol) into 200 ml of sterile Trypticase Soy Broth (TSB). These standard solutions (1000 μg/ml) were twofold serially diluted with additional sterile broth to a concentration of 125 μg/ml. A 3.8 aliquot of each dilution was asceptically delivered into sterile screw-capped culture tubes. All tubes were incubated overnight at 36° C to insure sterility. The microorganisms used in this example were the same as those used in Example I.
# The inoculum, 0.05 ml of an 13-24 hour TSB culture (approximately 10^9 organisms/ml) was asceptically delivered into all dilutions of the compounds, mixed well, and incubated at 36° C. A tube of inoculated broth without the compound served as a positive control and an uninoculated set of dilutions incubated along with the test dilutions, served as a negative control.
# In those cases in which the test compound itself caused turbidity, an aliquot (0.015 ml) of the mixed broth was inoculated onto an agar plate and incubated at 36° C for examination, as described in Example I. The control procedure of Example I was also repeated. The lauric, capric, and oleic acids were used as internal controls and for comparison to Example I. The minimal inhibitory concentrations (μmole/ml) for the compounds studied are given in Tables 7 and 8.
# [1] = Streptococcus mutans, Table 11, Strepococcus mutans, read-out: MIC
# [2] = Table 11, Corynebacterium sp., read-out: MIC
# [3] = Table 11, Nocardia asteroides, read-out: MIC
# [4] = Pseudomonas aeruginosa, Table 11, Pseudomonas aeruginosa, read-out: MIC
# [5] = Staphylococcus aureus, Table 11, Staphylococcus aureus, read-out: MIC
# [6] = Streptococcus agalactiae, Table 11, Strepococcus agalactiae, read-out: MIC
# [7] = Escherichia coli, Table 11, Escherichia coli, read-out: MIC
# [8] = Candida albicans, Table 11, Candida albicans, read-out: MIC
compound,measurement,setting,value
3(2)-tert-butyl-4-methoxyphenol [BHA],MIC,"Streptococcus mutans; Table 11, Strepococcus mutans",62.50 mg/L
same,MIC,"Streptococcus mutans; Table 13, Streptococcus mutans",62.50 mg/L
same,MIC,"Streptococcus mutans; Table 14, Streptococcus mutans",62.50 mg/L
same,MIC,"Corynebacterium sp.; Table 11, Corynebacterium sp.",62.50 mg/L
same,MIC,"Nocardia asteroides; Table 11, Nocardia asteroides",125 mg/L
same,MIC,"Nocardia asteroides; Table 13, Nocardia asteroides",62.50 mg/L
same,MIC,"Nocardia asteroides; Table 14, Nocardia asteroides",62.50 mg/L
same,MIC,"Pseudomonas aeruginosa; Table 11, Pseudomonas aeruginosa","> 1,000 μg/ml"
same,MIC,"Pseudomonas aeruginosa; Table 13, Pseudomonas aeruginosa","> 1,000 μg/ml"
same,MIC,"Pseudomonas aeruginosa; Table 14, Pseudomonas aeruginosa","> 1,000 μg/ml"
same,MIC,"Staphylococcus aureus; Table 11, Staphylococcus aureus",125 mg/L
same,MIC,"Staphylococcus aureus; Table 13, Staphylococcus aureus",125 mg/L
same,MIC,"Staphylococcus aureus; Table 14, Staphylococcus aureus",125 mg/L
same,MIC,"Streptococcus agalactiae; Table 11, Strepococcus agalactiae",125 mg/L
same,MIC,"Streptococcus agalactiae; Table 13, Streptococcus agalactiae",62.50 mg/L
same,MIC,"Streptococcus agalactiae; Table 14, Streptococcus agalactiae",62.50 mg/L
same,MIC,"Saccharomyces cerevisiae; Table 13, Saccharomyces cerevisiae",125 mg/L
same,MIC,"Saccharomyces cerevisiae; Table 14, Saccharomyces cerevisiae",125 mg/L
same,MIC,"Escherichia coli; Table 11, Escherichia coli","> 1,000 μg/ml"
same,MIC,"Escherichia coli; Table 13, Escherichia coli",500 µg/mL
same,MIC,"Escherichia coli; Table 14, Escherichia coli",500 µg/mL
same,MIC,"Candida albicans; Table 11, Candida albicans",125 mg/L
same,MIC,"Candida albicans; Table 13, Candida albicans",125 mg/L
same,MIC,"Candida albicans; Table 14, Candida albicans",125 mg/L
"CC(C)(C)c1ccc(C(C)(C)C)c(O)c1 [2,5-di-tert-butylphenol]",MIC,Streptococcus mutans; Streptococcus mutans,7.8 mg/L
same,MIC,Corynebacterium sp.; Corynebacterium,7.8 mg/L
same,MIC,Nocardia asteroides; Nocardia asteroides,7.8 mg/L
same,MIC,Pseudomonas aeruginosa; Pseudomonas aeruginosa,> 1000 mg/L
same,MIC,Staphylococcus aureus; Staphylococcus aureus,62.5 mg/L
same,MIC,Streptococcus agalactiae; Streptococcus agalactiae,15.6 mg/L
same,MIC,Saccharomyces cerevisiae; Saccharomyces cerevisiae,62.5 mg/L
same,MIC,Escherichia coli; Escherichia coli,> 1000 µg/mL
same,MIC,Candida albicans; Candida albicans,> 1000 mg/L
"CC(C)(C)c1cc(C(C)(C)C)c(O)c(C(=O)O)c1O [3,5-di-tert-butyl-2,6-dihydroxbenzoic]",MIC,Streptococcus mutans; [1],31.2 mg/L
same,MIC,Corynebacterium sp.; [2],15.6 mg/L
same,MIC,Nocardia asteroides; [3],15.6 mg/L
same,MIC,Pseudomonas aeruginosa; [4],> 1000 mg/L
same,MIC,Staphylococcus aureus; [5],31.2 mg/L
same,MIC,Streptococcus agalactiae; [6],15.6 mg/L
same,MIC,Saccharomyces cerevisiae; Saccharomyces cerevisiae,500 mg/L
same,MIC,Escherichia coli; [7],> 1000 µg/mL
same,MIC,Candida albicans; [8],500 mg/L
"CC(C)(C)c1cc(O)cc(C(C)(C)C)c1 [3,5-di-tert-butylphenol]",MIC,Streptococcus mutans; Streptococcus mutans,15.6 mg/L
same,MIC,Corynebacterium sp.; Corynebacterium,15.6 mg/L
same,MIC,Nocardia asteroides; Nocardia asteroides,15.6 mg/L
same,MIC,Pseudomonas aeruginosa; Pseudomonas aeruginosa,> 1000 mg/L
same,MIC,Staphylococcus aureus; Staphylococcus aureus,31.2 mg/L
same,MIC,Streptococcus agalactiae; Streptococcus agalactiae,31.2 mg/L
same,MIC,Saccharomyces cerevisiae; Saccharomyces cerevisiae,62.5 mg/L
same,MIC,Escherichia coli; Escherichia coli,> 1000 µg/mL
same,MIC,Candida albicans; Candida albicans,62.5 mg/L
"CC(C)(C)c1cc(C(C)(C)C)c(O)cc1O [4,6-di-tert-butylresorcinol]",MIC,Streptococcus mutans; [1],7.8 mg/L
same,MIC,Corynebacterium sp.; [2],7.8 mg/L
same,MIC,Nocardia asteroides; [3],7.8 mg/L
same,MIC,Pseudomonas aeruginosa; [4],> 1000 mg/L
same,MIC,Staphylococcus aureus; [5],15.6 mg/L
same,MIC,Streptococcus agalactiae; [6],15.6 mg/L
same,MIC,Saccharomyces cerevisiae; Saccharomyces cerevisiae,15.6 mg/L
same,MIC,Escherichia coli; [7],> 1000 µg/mL
same,MIC,Candida albicans; [8],62.5 mg/L
O=C(O)CCCCCCCCCCC(=O)O [Dodecanedioic acid],MIC,Streptococcus Group D,Ni
"O=C(O)CN(CCN(CC(=O)O)CC(=O)O)CC(=O)O [EDTA (N2 Ca salt), ethylenediamine tetraacetic acid]",MIC,Streptococcus mutans; Streptococcus mutans,500 mg/L
same,MIC,Nocardia asteroides; Nocardia asteroides,1000 mg/L
same,MIC,Pseudomonas aeruginosa; Pseudomonas aeruginosa,> 1000 mg/L
same,MIC,Staphylococcus aureus; Staphylococcus aureus,> 1000 mg/L
same,MIC,Streptococcus agalactiae; Streptococcus agalactiae,> 1000 mg/L
same,MIC,"Saccharomyces cerevisiae; Saccharomyces cerevisiae, Table 14, Saccharomyces cerevisiae, read-out: MIC",> 1000 mg/L
same,MIC,"Escherichia coli; Escherichia coli, Table 14, Escherichia coli",< 1000 µg/mL
same,MIC,Candida albicans; Candida albicans,> 1000 mg/L
